Consider 3 molecules from ChEMBL document CHEMBL3868619, “Synthesis and biological assessment of novel N-(hydroxy/methoxy)alkyl β-enaminone curcuminoids” (Bioorg Med Chem Lett, 2016).

pEC50, pIC50: −log10 of the molar value. ≈ marks a conversion by molar mass, not a printed value. Calls of active or inactive are those of the source. No cut-off for these calls is given here.

A short description of data set [1]: Cytotoxicity against human EAhy926 cells assessed as decrease in cell viability after 48 hrs by MTT assay. It counts as toxicity, cell-based, EA.hy 926. Particulars: EA.hy926 cells. For orientation: Tetrazolium dyes change colour on reduction, which living cells bring about.
Data set [2] deals with HepG2. In words: Cytotoxicity against human HepG2 cells assessed as change in cell morphology after 48 hrs. It is filed as functional, cell-based.
Data set [3] in a line: Cytotoxicity against human HT-29 cells assessed as decrease in cell viability after 48 hrs by MTT assay. To be noted: HT-29, 48 h. It counts as functional, cell-based.
Data set [4] in a line: Cytotoxicity against CHOK1 cells assessed as decrease in cell viability after 48 hrs by MTT assay. To be noted: Chinese hamster, CHO-K1 cells. It counts as toxicity, cell-based, Cricetulus griseus.
Data set [5] is described as follows: Cytotoxicity against human Caco2 cells assessed as decrease in cell viability after 48 hrs by MTT assay. It counts as functional, cell-based. Particulars: Caco-2, 48 h.
The nature of data set [6]: Cytotoxicity against human HepG2 cells assessed as decrease in cell viability after 48 hrs by MTT assay. It counts as functional, cell-based. To be noted: HepG2, 48 h.
Data set [7] can be described thus: Antioxidant activity assessed as DPPH radical scavenging activity after 30 mins by spectrophotometric analysis. It counts as functional. (In general: The DPPH test is a chemical assay of radical scavenging.)
Data set [8] has as its system HT-29. Nature of the data set: Induction of ROS generation in human HT-29 cells at 10 uM using DCFH-DA by fluorescence assay relative to control. It counts as functional.
Data set [9] in a line: Chemical stability of the compound sodium phosphate buffer at pH 6.8 after 24 hrs by LC-MS analysis. It is filed as physicochemical. To be noted: pH 6.8, 24 h.
The subject of data set [10] is HepG2. In words: Induction of ROS generation in human HepG2 cells at 1 uM using DCFH-DA by fluorescence assay relative to control. It counts as functional.
Data set [11] can be described thus: Induction of ROS generation in CHOK1 cells at 1 uM using DCFH-DA by fluorescence assay relative to control. It counts as cell-based, Cricetulus griseus. Particulars: chinese hamster, cho-k1, 1 µM.
In data set [12] the test system is Caco-2. In words: Induction of ROS generation in human Caco2 cells at 10 uM using DCFH-DA by fluorescence assay relative to control. It is filed as functional.
Data set [13] is described as follows: Aqueous solubility of the compound in sodium phosphate buffer at pH 6.8 after 24 hrs by shake flask method. It is filed as physicochemical.
Data set [14] in a line: Solubility of the compound in dimethyl sulfoxide. It counts as physicochemical.
Data set [15] concerns EA.hy 926. Nature of the data set: Induction of ROS generation in human EAhy926 cells at 1 uM using DCFH-DA by fluorescence assay relative to control. It is filed as functional.
Data set [16] can be described thus: Solubility of the compound in ethyl acetate. It is filed as physicochemical.
Data set [17] relates to HT-29. In words: Induction of ROS generation in human HT-29 cells at 1 uM using DCFH-DA by fluorescence assay relative to control. It is filed as functional.
Data set [18] in a line: Solubility of the compound in ethanol. It is filed as physicochemical.
For data set [19], the system named is EA.hy 926. In words: Induction of ROS generation in human EAhy926 cells at 10 uM using DCFH-DA by fluorescence assay relative to control. It counts as functional.
Data set [20] concerns Caco-2. Nature of the data set: Induction of ROS generation in human Caco2 cells at 1 uM using DCFH-DA by fluorescence assay relative to control. It is filed as functional.
Data set [21] in a line: Solubility of the compound in dimethylformamide. It counts as physicochemical.
Data set [22] in a line: Aqueous solubility of the compound in sodium phosphate buffer at pH 6.8 after 90 mins by shake flask method. It counts as physicochemical.
Data set [23] can be described thus: Solubility of the compound in acetone. It counts as physicochemical.
Data set [24] can be described thus: Solubility of the compound in 2-methyl-THF. It counts as physicochemical.
Data set [25] is described as follows: Solubility of the compound in methanol. It is filed as physicochemical.
Data set [26] has as its system HepG2. In words: Induction of ROS generation in human HepG2 cells at 10 uM using DCFH-DA by fluorescence assay relative to control. It is filed as functional.
Data set [27] can be described thus: Induction of ROS generation in CHOK1 cells at 10 uM using DCFH-DA by fluorescence assay relative to control. It counts as cell-based, Cricetulus griseus. Particulars: chinese hamster, cho-k1, 10 µM.
Data set [28] is described as follows: Cytotoxicity against human EAhy926 cells assessed as cell viability at 100 uM after 48 hrs by MTT assay relative to control. It counts as toxicity, cell-based, EA.hy 926. To be noted: EA.hy926 cells, read-out: Activity.

In general, IC50 refers to the concentration at which inhibition is half-maximal. The pIC50 is −log10 of the IC50, conventionally taken in molar units. `COc1cccc2c1C(=O)c1c(O)c3c(c(O)c1C2=O)C[C@@](O)(C(=O)CO)C[C@@H]3O[C@H]1C[C@H](N)[C@H](O)[C@H](C)O1` [DOXORUBICIN]: the IC50 at 48 h in [1] and in [4] was 4.2 µM in each case. For the same molecule, the outcome in data set [2] was Active. Also, the pIC50 is 5.13 in [3], 5.03 in data set [5] and < 4.12 in data set [6].

A word on the pEC50: it is the EC50 on a negative log10 scale, so that one unit is a factor of ten. Usually solubility (thermodynamic) stands for the concentration in solution at equilibrium with solid. Turning to `COCCCNC(=C\C(=O)/C=C/c1ccc(O)c(OC)c1)/C=C/c1ccc(O)c(OC)c1`, the pEC50 in [7] is 4.53. Besides, the Activity in [8] is on record as 95%; in data set [10], 68.5%; in data set [11], 98.3%; in data set [12], 84.8%; in data set [15], 91.5%; in data set [17], 99.5%. In addition, the Activity in data set [19] is listed as 89.9%; in [20], 97.9%; in data set [26], 77.5%; in data set [27], 81.2%. For the same molecule, the Stability result in data set [9] is given as “Stable”. For the same molecule, the IC50 at 48 h in data set [1] was > 100 µM; in data set [4], 53.7 µM. The solubility (thermodynamic) at 24 h in [13] came to 9.66 µM (≈ 4.25 µg/mL). In addition, the solubility result was “Soluble” in [14]; “Insoluble” in [16]; “Soluble” in data set [18]; “Soluble” in data set [21]; “Insoluble” in [23]; “Insoluble” in [24]. In data set [25], the solubility entry is given as “Soluble”. In addition, the figures for the pIC50 in [3], in data set [5] and in data set [6] were 4.14, 4.31 and < 4.00, respectively. The molecule further gave a thermodynamic solubility at 1.5 h in [22] of 7.7 µM (≈ 3.38 µg/mL).

`COCCNC(=C\C(=O)/C=C/c1ccc(O)c(OC)c1)/C=C/c1ccc(O)c(OC)c1`: the pEC50 in data set [7] is 4.56. Moreover, the Activity is reported as 92.3% in data set [8]; 83.8% in data set [10]; 94% in [11]; 75.6% in [12]; 126.2% in data set [15]; 86.5% in data set [17]. The Activity is listed as 121.3% in data set [19], 105% in [20], 66.6% in data set [26] and 84.4% in [27]. For the same molecule, the Stability entry in data set [9] was “Stable”. For the same molecule, the IC50 at 48 h in data set [1] was ≥ 100 µM; in data set [4] it was 63 µM. In [13], this molecule came in with a solubility (thermodynamic) at 24 h of 12.7 µM (≈ 5.4 µg/mL). Moreover, the solubility entry in data set [14] is listed as “Soluble”; in data set [16], “Insoluble”; in [18], “Soluble”; in data set [21], “Soluble”; in [23] it was “Insoluble”; in data set [24] it was “Insoluble”. In addition, in data set [25], the solubility result is “Soluble”. Further, in [28], the viability at 48 h, 100 µM was found to be 50.9%. Besides, the pIC50 in data set [3], in data set [5] and in data set [6] was < 4.00 in each case. The molecule further gave a thermodynamic solubility at 1.5 h in [22] of 16.7 µM (≈ 7.1 µg/mL).
